Source: the NIST ThermoML archive (doi:10.1016/j.fluid.2015.06.045)
“And” between values parts separate entries of the source, which are not always exact repeats. Identical values can stand only once.

How the values were obtained:
[1] = Closed cell (Static) method
[2] = molar heat capacity at constant pressure

NCCO [2-aminoethan-1-ol]
vapor or sublimation pressure, [1]
Details | Crystal | Metastable liquid
258.17 K | 0.00078 kPa and 0.00077 kPa and 0.00076 kPa | –
263.17 K | 0.00142 kPa | –
268.17 K | 0.00264 kPa and 0.00265 kPa | –
273.65 K | 0.0052 kPa and 0.00519 kPa and 0.00518 kPa | 0.00646 kPa
275.65 K | 0.00658 kPa | 0.00785 kPa
278.15 K | 0.00883 kPa and 0.00884 kPa | 0.00997 kPa and 0.00998 kPa
280.65 K | 0.01183 kPa and 0.01185 kPa | 0.01262 kPa and 0.01263 kPa
283.15 K | 0.01576 kPa and 0.01575 kPa | 0.0159 kPa and 0.01591 kPa and 0.01587 kPa
285.65 K | – | 0.0199 kPa and 0.01992 kPa
288.15 K | – | 0.02494 kPa and 0.02505 kPa and 0.02501 kPa
290.65 K | – | 0.03092 kPa and 0.03099 kPa
293.15 K | – | 0.03842 kPa and 0.03848 kPa and 0.03849 kPa
295.65 K | – | 0.04735 kPa and 0.04742 kPa and 0.04744 kPa
298.15 K | – | 0.05877 kPa and 0.05861 kPa and 0.05859 kPa
300.65 K | – | 0.07124 kPa and 0.07125 kPa and 0.07143 kPa
303.15 K | – | 0.08725 kPa and 0.08736 kPa
303.16 K | – | 0.08722 kPa

[2], 100 kPa, Ideal gas
Details | molar heat capacity at constant pressure [J/K/mol]
100 K | 42.58
150 K | 53.66
200 K | 64.26
250 K | 74.41
273.15 K | 79.16
298.15 K | 84.38
300 K | 84.78
400 K | 106.54
500 K | 127.9
600 K | 146.98
700 K | 163.08
800 K | 176.25
900 K | 186.86
1000 K | 195.39

[2], 101.33 kPa, Metastable liquid, Large sample (1 g) DSC
Details | molar heat capacity at constant pressure
265.75 K | 160.55 J/K/mol
270.85 K | 161.8 J/K/mol
275.96 K | 162.46 J/K/mol
281.07 K | 163.71 J/K/mol
286.17 K | 164.54 J/K/mol
291.28 K | 165.54 J/K/mol and 165.87 J/K/mol
296.38 K | 166.54 J/K/mol and 167.29 J/K/mol
301.49 K | 168.12 J/K/mol and 167.79 J/K/mol
306.59 K | 169.2 J/K/mol and 169.12 J/K/mol
311.69 K | 170.28 J/K/mol and 170.53 J/K/mol
316.8 K | 171.36 J/K/mol and 171.69 J/K/mol
321.9 K | 172.61 J/K/mol and 173.11 J/K/mol
327.01 K | 174.1 J/K/mol and 174.27 J/K/mol
332.12 K | 175.68 J/K/mol and 175.35 J/K/mol
337.22 K | 176.68 J/K/mol and 177.18 J/K/mol
342.33 K | 178.1 J/K/mol and 178.59 J/K/mol
347.43 K | 179.51 J/K/mol and 179.43 J/K/mol
352.54 K | 181.26 J/K/mol and 181.34 J/K/mol

CN1CCCC1=O [N-methylpyrrolidone]
[1], Liquid
Details | vapor or sublimation pressure
273.65 K | 0.00631 kPa and 0.0063 kPa
278.15 K | 0.0094 kPa and 0.00937 kPa and 0.00938 kPa
283.15 K | 0.01432 kPa
288.15 K | 0.02159 kPa and 0.02162 kPa
293.15 K | 0.03193 kPa and 0.03195 kPa and 0.03196 kPa
298.15 K | 0.04664 kPa and 0.04665 kPa and 0.0466 kPa
303.15 K | 0.06708 kPa and 0.06709 kPa
308.15 K | 0.09518 kPa and 0.09516 kPa
308.17 K | 0.0951 kPa

[2], 100 kPa, Ideal gas
Details | molar heat capacity at constant pressure [J/K/mol]
100 K | 59.31
150 K | 72.28
200 K | 85.04
250 K | 99.6
273.15 K | 106.98
298.15 K | 115.26
300 K | 115.89
400 K | 149.87
500 K | 180.98
600 K | 207.43
700 K | 229.6
800 K | 248.26
900 K | 264.08
1000 K | 277.55

[2], 101.33 kPa, Liquid, Large sample (1 g) DSC
Details | molar heat capacity at constant pressure
265.75 K | 168.2 J/K/mol and 168.12 J/K/mol
270.85 K | 169.2 J/K/mol and 169.03 J/K/mol
275.96 K | 169.62 J/K/mol and 169.86 J/K/mol
281.07 K | 170.95 J/K/mol and 170.78 J/K/mol
286.17 K | 171.86 J/K/mol
291.28 K | 173.36 J/K/mol and 172.86 J/K/mol
296.38 K | 173.94 J/K/mol and 174.27 J/K/mol
301.49 K | 175.35 J/K/mol and 175.52 J/K/mol
306.59 K | 176.52 J/K/mol
311.69 K | 177.93 J/K/mol and 177.85 J/K/mol
316.8 K | 178.93 J/K/mol and 179.09 J/K/mol
321.9 K | 180.01 J/K/mol and 180.42 J/K/mol
327.01 K | 181.84 J/K/mol and 181.75 J/K/mol
332.12 K | 183.25 J/K/mol
337.22 K | 184.41 J/K/mol and 184.66 J/K/mol
342.33 K | 185.75 J/K/mol and 186.16 J/K/mol
347.43 K | 187.24 J/K/mol
352.54 K | 188.57 J/K/mol and 188.82 J/K/mol
